Reference: patent US7371811B2, “Schizophrenia associated genes, proteins and biallelic markers” (Serono Genetics Institute S.A., priority 1998, dated 2008)

Test system: Male C57BL6 adult mice
Assay: Effect of sbg1 peptide on behavior of mice (locomotor and stereotypy movements)
Assay type: in vivo
Settings: 50 μg peptide intraperitoneally in 200 μl saline, n=4/peptide, FIG. 18
Protocol: In one example, the present inventors have tested sbg1 peptides by injection into mice. An sbg1 peptide comprising amino acid positions 124 to 153 of SEQ ID No 34 was injected peritoneally into adult mice as described herein in Example 7. […] Because the onset of stereotypy was variable, data are presented as the average of stereotypy for observations over the entire time period.
Animals: Male C57BL6 adult mice (approximately 6 weeks old)
Peptides: sbg1 peptide: • NH2-[…]-COOH (SEQ ID NO:232) • Control 1: NH2-[…]-COOH (SEQ ID NO:233) • Control 2: NH2-MHMKTILGPRLGLGE-COOH (SEQ ID NO:234)
Protocol: • 1. Inject mice intraperitoneally with 50 μg peptide in 200 μl sterile physiological saline (n=4/peptide). • 2. Place mice in clean empty cages containing no litter, and only a small test tube rack. The cages are covered with a plastic sheet to enable taking photographs and video-tracking. • 3. Observe behavior for one minute from t=5 min up to t=45 min, as indicated. Any locomoter or stereotypy movements were recorded as positive over 1 min intervals. Locomoter movements include climbing, and rearing while stereotypy movements include grooming and scratching. At the end of the experiment, the number of movements were added up for each animal.
Results: • 1. […]

## NH2-QPLERMWTCNYNQQKDQSCNHKEITSTKAE-COOH (H-QPLERMWTCNYNQQKDQSCNHKEITSTKAE-OH; cysteine pairing not given here; listed as Homo sapiens) [sbg1 peptide]
Average movements at 5, 10, 15 min compared with 30, 35, 40, 45 min
  frequency of movements (locomotor activity) over the time course of the experiment: decrease in the frequency of their movements
Observed t=5 to 45 min, effect most prominent during the last period
  stereotypy (grooming and scratching movements): increased stereotypy
